target: MAPK14 (human) (UniProt Q16539); experiment: Inhibition of MAPK14 Kinase Activity
Sequence (Q16539 whole entry, looked up): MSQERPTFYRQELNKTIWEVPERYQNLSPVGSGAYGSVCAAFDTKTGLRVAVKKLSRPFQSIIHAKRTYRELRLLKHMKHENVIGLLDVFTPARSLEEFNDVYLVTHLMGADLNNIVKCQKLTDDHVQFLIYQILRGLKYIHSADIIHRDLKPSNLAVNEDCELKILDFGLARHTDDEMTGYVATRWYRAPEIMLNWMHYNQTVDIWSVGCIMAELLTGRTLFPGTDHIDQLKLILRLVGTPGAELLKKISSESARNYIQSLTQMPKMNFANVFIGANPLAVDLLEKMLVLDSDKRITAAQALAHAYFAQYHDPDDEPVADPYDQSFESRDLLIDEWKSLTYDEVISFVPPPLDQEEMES

Compound	IC50 [µM]
Cc1ccc(CC2CNC(=O)N(c3c(Cl)cccc3Cl)C2)cc1 (stereo not given)	≤ 10
NCc1ccccc1CC1CCC(=O)N(c2c(Cl)cccc2Cl)C1 (stereo not given)	≤ 10
O=C1CCC(Sc2ccccc2)CN1c1c(Cl)ccnc1Cl (stereo not given)	≤ 10
O=C1CCC(CCc2ccccc2)CN1c1c(Cl)cccc1Cl (stereo not given)	≤ 10
N#C/C=C/c1cc(Cl)c(N2CC(Cc3ccc(F)cc3F)CCC2=O)c(Cl)c1 (stereo not given)	≤ 10
COc1ccc(OC2CCC(=O)N(c3c(Cl)cccc3Cl)C2)cc1 (stereo not given)	≤ 10
O=C1CCC(Oc2cc(F)cc(F)c2)CN1C1C(Cl)CCCC1Cl (stereo not given)	≤ 10
Cc1cccc(NC(=O)NCc2ccccc2CC2CCC(=O)N(c3c(Cl)cccc3Cl)C2)c1 (stereo not given)	≤ 10
Cc1cc(N)cc(C)c1N1CC(Cc2ccc(F)cc2F)CCC1=O (stereo not given)	≤ 10
O=C1NCC(Cc2ccc(F)cc2F)CN1c1c(Cl)cc(CO)cc1Cl (stereo not given)	≤ 10
O=C(Cc1ccccc1)Nc1cnc(Cl)c(N2CC(Oc3ccc(F)cc3F)CCC2=O)c1Cl (stereo not given)	≤ 10
O=C1CCC(Cc2ccccc2Cl)CN1C1C(Cl)CCCC1Cl (stereo not given)	≤ 10
O=C1CCC(Cc2ccccc2Cl)CN1c1c(Cl)csc1Cl (stereo not given)	≤ 10
O=C(O)CCCC(=O)Nc1cc(Cl)c(N2CC(Cc3ccc(F)cc3F)CCC2=O)c(Cl)c1 (stereo not given)	≤ 10
O=C1COC(Cc2ccc(F)cc2F)CN1c1c(Cl)cc(CO)cc1Cl (stereo not given)	≤ 10
O=C1CCC(Sc2ccccc2Cl)CN1c1c(Cl)cccc1Cl (stereo not given)	≤ 10
O=C1NCC(Cc2ccc(F)cc2F)CN1c1c(Cl)ccc(CO)c1Cl (stereo not given)	≤ 10

Compound	IC50 [µM]
COc1ccc(CC2CCC(=O)N(c3c(Cl)cncc3Cl)C2)cc1 (stereo not given)	≤ 10
O=C1CCC(Sc2ccc(Cl)cc2)CN1c1c(Cl)cccc1Cl (stereo not given)	≤ 10
CCOC(=O)CCCNC(=O)c1cc(C)c(N2CC(Cc3ccc(F)cc3F)CCC2=O)c(C)c1 (stereo not given)	≤ 10
O=C1CCC(Oc2ccc(Cl)cc2Cl)CN1C1C(Cl)CCCC1Cl (stereo not given)	≤ 10
O=C1CCC(Cc2ccc(F)cc2F)CN1c1c(Cl)cc(NCCN2CCCC2)cc1Cl (stereo not given)	≤ 10
O=C1CCC(Sc2ccccc2Cl)CN1c1c(Cl)ccnc1Cl (stereo not given)	≤ 10
CNc1cnc(Cl)c(N2CC(Cc3ccc(F)cc3F)CCC2=O)c1Cl (stereo not given)	≤ 10
O=C1CCC(Oc2ccc3ccccc3c2)CN1c1c(Cl)cccc1Cl (stereo not given)	≤ 10
CN(C(=O)Cc1ccccc1)c1cc(Cl)c(N2CC(Cc3ccc(F)cc3F)CCC2=O)c(Cl)c1 (stereo not given)	≤ 10
Cc1ccc(CC2CSC(=O)N(c3c(Cl)cccc3Cl)C2)c(C)c1 (stereo not given)	≤ 10
CC(=O)NC1CCC(Cl)C(N2CC(Sc3ccc(F)cc3F)CCC2=O)C1Cl (stereo not given)	≤ 10
Cc1cc(N)cc(C)c1N1CC(Cc2ccc(F)cc2F)CNC1=O (stereo not given)	≤ 10
O=C1CCC(Cc2cc(F)cc(F)c2)CN1c1c(Cl)cncc1Cl (stereo not given)	≤ 10
O=C1CCC(Cc2ccccc2)CN1c1c(Cl)cc([N+](=O)[O-])cc1Cl (stereo not given)	≤ 10
CC(C)(C)OC(=O)N(Cc1ccccn1)c1cc(Cl)c(N2CC(Cc3ccc(F)cc3F)CCC2=O)c(Cl)c1 (stereo not given)	≤ 10
Cc1ccc(CC2CNC(=O)N(c3c(Cl)cccc3Cl)C2)c(C)c1 (stereo not given)	≤ 10
Cc1nc(CNc2cc(Cl)c(N3CC(Cc4ccc(F)cc4F)CCC3=O)c(Cl)c2)c[nH]1 (stereo not given)	≤ 10

The next lines start with the values.

IC50 [µM]	Compound
≤ 10	C[C@@H]1C[C@H](Cc2ccc(F)cc2F)CN(c2c(Cl)cc(NC(=O)OC(C)(C)C)cc2Cl)C1=O
≤ 10	O=C1CCC(Sc2cccc3ccccc23)CN1c1c(Cl)ccnc1Cl (stereo not given)
≤ 10	CN1CC(Cc2ccc(Cl)cc2Cl)CN(c2c(Cl)cccc2Cl)C1=O (stereo not given)
≤ 10	CNc1sc(Cl)c(N2CC(Sc3ccc(F)cc3F)CCC2=O)c1Cl (stereo not given)
≤ 10	CNc1ccc(Cl)c(N2CC(Oc3ccc(F)cc3F)CCC2=O)c1Cl (stereo not given)
≤ 10	CN(C)C(=O)CNc1cc(Cl)c(N2CC(Cc3ccc(F)cc3F)CCC2=O)c(Cl)c1 (stereo not given)
≤ 10	COC(=O)CCc1cc(Cl)c(N2CC(Cc3ccc(F)cc3F)CCC2=O)c(Cl)c1 (stereo not given)
≤ 10	CN1CC(Cc2ccc(F)cc2)CN(c2c(Cl)cccc2Cl)C1=O (stereo not given)
≤ 10	C[C@@H]1C[C@H](Cc2ccc(F)cc2F)CN(c2c(Cl)cccc2Cl)C1=O
≤ 10	O=C(Cc1ccccc1)Nc1ncc(Cl)c(N2CC(Cc3ccc(F)cc3F)CCC2=O)c1Cl (stereo not given)
≤ 10	COc1ccccc1CC1CCC(=O)N(c2c(Cl)cccc2Cl)C1 (stereo not given)
≤ 10	CC(=O)NCCNc1cc(Cl)c(N2CC(Cc3ccc(F)cc3F)CCC2=O)c(Cl)c1 (stereo not given)
≤ 10	O=C1CCC(Cc2ccc(F)cc2)CN1c1c(Cl)csc1Cl (stereo not given)
≤ 10	O=C1CCC(Cc2cc(Cl)cc(Cl)c2)CN1c1c(Cl)csc1Cl (stereo not given)
≤ 10	CNc1ccc(Cl)c(N2CC(Cc3ccc(F)cc3F)OCC2=O)c1Cl (stereo not given)
≤ 10	Nc1cc(Cl)c(N2CC(Sc3ccc(F)cc3F)CCC2=O)c(Cl)c1 (stereo not given)
≤ 10	Nc1ccc(Cl)c(N2CC(Cc3ccc(F)cc3F)COC2=O)c1Cl (stereo not given)
≤ 10	O=C1CCC(Sc2cc(Cl)cc(Cl)c2)CN1c1c(Cl)ccnc1Cl (stereo not given)
≤ 10	O=C1CCC(Cc2ccc3ccccc3c2)CN1c1c(Cl)ccnc1Cl (stereo not given)
≤ 10	Cc1cccc(C)c1N1CC(CCCc2ccccc2)CCC1=O (stereo not given)
≤ 10	COCOCc1ccccc1CC1CCC(=O)N(c2c(Cl)cccc2Cl)C1 (stereo not given)
≤ 10	O=C1CCC(Cc2ccc(F)cc2F)CN1c1c(Cl)cc(CO)nc1Cl (stereo not given)
≤ 10	Cc1ccccc1SC1CCC(=O)N(c2c(Cl)cccc2Cl)C1 (stereo not given)

IC50 [µM]	Compound
≤ 10	O=C1CCC(Cc2ccc([N+](=O)[O-])cc2)CN1c1c(Cl)cccc1Cl (stereo not given)
≤ 10	O=C(CNc1cc(Cl)c(N2CC(Cc3ccc(F)cc3F)CCC2=O)c(Cl)c1)NCCO (stereo not given)
≤ 10	O=C1[C@H](O)C[C@@H](Cc2ccc(F)cc2F)CN1c1c(Cl)cccc1Cl
≤ 10	Cc1ccc(CC2CN(c3c(Cl)cccc3Cl)C(=O)CO2)cc1 (stereo not given)
≤ 10	Cc1cc2c(cc1NC(=O)NCc1ccccc1CC1CCC(=O)N(c3c(Cl)cccc3Cl)C1)C(C)(C)CCC2 (stereo not given)
≤ 10	CC(=O)Nc1cc(Cl)c(N2CC(Cc3ccc(F)cc3F)CCC2=O)c(Cl)n1 (stereo not given)
≤ 10	O=C1CCC(C(Cl)c2ccc(F)cc2F)CN1c1c(Cl)cccc1Cl (stereo not given)
≤ 10	O=C1CSC(Cc2ccccc2F)CN1c1c(Cl)cccc1Cl (stereo not given)
≤ 10	O=C1CCC(Sc2ccc(F)cc2F)CN1c1c(Cl)ccc(O)c1Cl (stereo not given)
≤ 10	O=C1CCC(Oc2ccccc2F)CN1c1c(Cl)csc1Cl (stereo not given)
≤ 10	O=C1OCC(Cc2ccc(Cl)cc2)CN1c1c(Cl)cccc1Cl (stereo not given)
≤ 10	Cc1cccc(C)c1N1C[C@H](Cc2ccc(F)cc2F)C[C@H](C)C1=O
≤ 10	CC(c1ccc(F)cc1F)C1CCC(=O)N(c2c(Cl)cccc2Cl)C1 (stereo not given)
≤ 10	O=C1CCC(Cc2ccc(F)cc2F)CN1c1c(Cl)cc(COC(c2ccccc2)(c2ccccc2)c2ccccc2)cc1Cl (stereo not given)
≤ 10	O=C1CCC(Cc2ccccc2)CN1c1c(F)cccc1F (stereo not given)
≤ 10	O=C1CCC(Cc2ccc(F)cc2F)CN1c1c(Cl)sc(CO)c1Cl (stereo not given)
≤ 10	O=C1CCC(Sc2ccc(Cl)cc2Cl)CN1c1c(Cl)csc1Cl (stereo not given)
≤ 10	CN1CC(Cc2ccc(F)cc2F)CN(c2c(Cl)cccc2Cl)C1=O (stereo not given)
≤ 10	Cc1ccc(CC2CSC(=O)N(c3c(Cl)cccc3Cl)C2)cc1 (stereo not given)
≤ 10	O=C(Nc1ccc(CC2CCC(=O)N(c3c(Cl)cccc3Cl)C2)cc1)C1CCCCC1 (stereo not given)
≤ 10	O=C1CCC(Sc2cccc3ccccc23)CN1c1c(Cl)cncc1Cl (stereo not given)
≤ 10	O=C1COC(Cc2cc(F)cc(F)c2)CN1c1c(Cl)cccc1Cl (stereo not given)
≤ 10	COc1ccc(CC2CN(c3c(Cl)cccc3Cl)C(=O)CO2)cc1 (stereo not given)

From the Kinase Knowledgebase extract (Sharma et al. 2016)
